Tested on: P12-Ichikawa
Experiment: cell viability relative to DMSO control; higher = less cytotoxic
Conditions: 48 h
Summary of the method: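 Library compounds in DMSO were pin-dosed in an 11-point threefold series (47 μM to 0.79 nM) onto leukemia cells in 1536-well plates (5 μl). Plates held 500 cells/well of NOMO1 or SEM or 1000 cells/well of P12-Ichikawa, each adapted for at least four passages in each medium. Luminescence was read with CellTiter-Glo One after 48 h at 37°C. Viability means the per-plate percentage relative to DMSO wells, using cell-free wells as background.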

[1] = HPLM + 10% dialyzed FBS, 0.000781 µM
[2] = HPLM + 10% dialyzed FBS, 0.00234 µM
[3] = HPLM + 10% dialyzed FBS, 0.00702 µM
[4] = HPLM + 10% dialyzed FBS, 0.0211 µM
[5] = HPLM + 10% dialyzed FBS, 0.0632 µM
[6] = HPLM + 10% dialyzed FBS, 0.19 µM
[7] = HPLM + 10% dialyzed FBS, 0.569 µM
[8] = HPLM + 10% dialyzed FBS, 1.71 µM
[9] = HPLM + 10% dialyzed FBS, 5.12 µM
[10] = HPLM + 10% dialyzed FBS, 15.4 µM
[11] = HPLM + 10% dialyzed FBS, 46.1 µM
[12] = RPMI 5 mM glucose + 10% FBS, 0.000781 µM
[13] = RPMI 5 mM glucose + 10% FBS, 0.00234 µM
[14] = RPMI 5 mM glucose + 10% FBS, 0.00702 µM
[15] = RPMI 5 mM glucose + 10% FBS, 0.0211 µM
[16] = RPMI 5 mM glucose + 10% FBS, 0.0632 µM
[17] = RPMI 5 mM glucose + 10% FBS, 0.19 µM
[18] = RPMI 5 mM glucose + 10% FBS, 0.569 µM
[19] = RPMI 5 mM glucose + 10% FBS, 1.71 µM
[20] = RPMI 5 mM glucose + 10% FBS, 5.12 µM
[21] = RPMI 5 mM glucose + 10% FBS, 15.4 µM
[22] = RPMI 5 mM glucose + 10% FBS, 46.1 µM
[23] = RPMI 5 mM glucose + 10% dialyzed FBS, 0.000781 µM
[24] = RPMI 5 mM glucose + 10% dialyzed FBS, 0.00234 µM
[25] = RPMI 5 mM glucose + 10% dialyzed FBS, 0.00702 µM
[26] = RPMI 5 mM glucose + 10% dialyzed FBS, 0.0211 µM
[27] = RPMI 5 mM glucose + 10% dialyzed FBS, 0.0632 µM
[28] = RPMI 5 mM glucose + 10% dialyzed FBS, 0.19 µM
[29] = RPMI 5 mM glucose + 10% dialyzed FBS, 0.569 µM
[30] = RPMI 5 mM glucose + 10% dialyzed FBS, 1.71 µM
[31] = RPMI 5 mM glucose + 10% dialyzed FBS, 5.12 µM
[32] = RPMI 5 mM glucose + 10% dialyzed FBS, 15.4 µM
[33] = RPMI 5 mM glucose + 10% dialyzed FBS, 46.1 µM

SMILES | cell viability [1] [%] | cell viability [2] [%] | cell viability [3] [%] | cell viability [4] [%] | cell viability [5] [%] | cell viability [6] [%] | cell viability [7] [%] | cell viability [8] [%] | cell viability [9] [%] | cell viability [10] [%] | cell viability [11] [%] | cell viability [12] [%] | cell viability [13] [%] | cell viability [14] [%] | cell viability [15] [%] | cell viability [16] [%] | cell viability [17] [%] | cell viability [18] [%] | cell viability [19] [%] | cell viability [20] [%] | cell viability [21] [%] | cell viability [22] [%] | cell viability [23] [%] | cell viability [24] [%] | cell viability [25] [%] | cell viability [26] [%] | cell viability [27] [%] | cell viability [28] [%] | cell viability [29] [%] | cell viability [30] [%] | cell viability [31] [%] | cell viability [32] [%] | cell viability [33] [%]
CC(=O)N1CCN(c2ccc(OCc3nn(C)c(C)c3-c3cccc4c(CCCOc5cc(C)c(Cl)c(C)c5)c(C(=O)O)n(Cc5cccnc5)c34)cc2)CC1 | 104 | 113 | 112 | 115 | 114 | 111 | 113 | 107 | 115 | 113 | 39.2 | 105 | 106 | 115 | 118 | 120 | 127 | 116 | 123 | 125 | 126 | 64.9 | 104 | 115 | 115 | 122 | 125 | 121 | 112 | 110 | 118 | 115 | 66.7
CN(C)Cc1ccc(-c2nc3cccc4c3n2CCNC4=O)cc1 | 90.5 | 100 | 105 | 103 | 109 | 102 | 112 | 109 | 108 | 114 | 110 | 92.8 | 96.3 | 94.7 | 108 | 108 | 105 | 106 | 107 | 109 | 109 | 106 | 90.2 | 99.1 | 101 | 109 | 107 | 111 | 107 | 108 | 105 | 102 | 112
CCOC(=O)Nc1ccc(NCc2ccc(F)cc2)cc1N | 112 | 116 | 116 | 121 | 115 | 110 | 107 | 112 | 101 | 98.6 | 78.6 | 113 | 122 | 122 | 109 | 122 | 114 | 118 | 114 | 109 | 107 | 102 | 118 | 113 | 122 | 118 | 110 | 121 | 113 | 111 | 98.3 | 103 | 87.4
O=C/1\C=C(/OC(=C1)/C2=C3SC4=C(SC3=CC=C2)C=CC=C4)N5CCOCC5 | 81.4 | 100 | 98.5 | 10.6 | 100 | 103 | 102 | 98.1 | 95.2 | 94.4 | 95 | 84.7 | 92.7 | 96.9 | 11.2 | 103 | 100 | 106 | 104 | 93.1 | 102 | 102 | 83.4 | 94.4 | 97.2 | 23.7 | 95.7 | 84.4 | 99.2 | 99.4 | 96 | 95.7 | 90.8
